Test results from publication PMC9020739, “Identification of a two-component regulatory system involved in antimicrobial peptide resistance in Streptococcus pneumoniae” (PLoS Pathogens, 2022).
Where a SMILES comes first, the peptide text is derived from it. Bridges are numbered along the chain shown (N, C = ends). [ ]: non-standard residue; d: D form. The star is where a group is joined. Ileψ(thiazoline)Cys = CC[C@H](C)[C@H](N)C1=N[C@H](C(=O)*)CS1; dOrn = NCCC[C@@H](N)C(=O)O

Tests used:
[1] = biological target: BceAB transporter from S. pneumoniae (Streptococcus pneumoniae, UniProt A0A0H2ZN40); type: biochemical; conditions: 5 mM nucleotide, 300 μg/mL bacitracin
Procedure: E. coli BL21(DE3) cells were transformed with pRSF-Duet1-BceAB WT, K48A or E170Q and selected on LB-agar plates containing 50 μg/mL kanamycin. One colony was inoculated into in 2L-baffled flasks containing 500 mL of 2YT medium and 50 μg/mL kanamycin and grown at 37°C, 180 rpm to OD600 of 0.6. Protein expression was induced by adding IPTG to a final concentration of 1 mM. Induction was performed overnight at 25°C and cells were harvested by centrifugation at 7,000 g for 20 min.
Cells were resuspended in buffer A (HEPES-NaOH 100 mM pH 8.0, NaCl 150 mM) and lysed by passaging them three times through a cell disruptor (Microfluidizer, Microfluidics) at 18,000 psi (or 1,24 x 108 Pa). Undisrupted cells and cell debris were removed by centrifugation at 15,000 x g for 30 min at 4°C. Membranes were harvested from the supernatant after ultracentrifugation at 150,000 x g for 1 h at 4°C. Membranes were resuspended in 20 mL of buffer A and centrifuged once again at 150,000 x g for 1 h at 4°C. Membrane pellets were homogenized in buffer HEPES-NaOH 100 mM pH 8.0, NaCl 150 mM and 20% glycerol, and stored at -80°C.
For the purification of BceAB, membranes from 0,5 L cell culture were diluted in buffer B (100 mM d’HEPES-NaOH pH 8, 150 mM NaCl, 10% glycerol) to a protein concentration of 4 mg/mL and solubilized with 0.5% (w/v) LMNG for 2 h at 4°C. After ultracentrifugation at 150,000 x g for 1 h at 4°C, the supernatant containing solubilized proteins was diluted four times using buffer B and loaded on Ni^2+-charged immobilized metal-ion affinity chromatography (IMAC) column (1 mL HisTrap HP, Cytiva). The column was washed with 10 mL of buffer B containing 0.005% (w/v) LMNG and 20 mM of imidazole. The column was further washed with the same buffer until OD280nm reached basal levels. BceAB was eluted by buffer B containing 0.005% (w/v) LMNG and an imidazole gradient from 20 to 500 mM of imidazole. Purified BceAB was dialyzed into buffer B containing 0.005% (w/v) LMNG and stored at -80°C.
The proteoliposomes were prepared as previously described for the transporter BmrA [50]. Proteoliposomes were loaded on sucrose gradient with different layers of 400 μL of 50 mM HEPES-KOH pH 8.0 buffer containing 30, 20, 15 or 10% of sucrose. One mL of proteoliposomes was loaded on the top of the sucrose gradient and ultra-centrifuged at 200,000 x g for 12 h at 4°C. Proteoliposomes were typically collected from the 15% layer and were loaded on SDS-PAGE to analyze and quantify the presence of BceAB by using a standard-curve of purified BceAB and ImageJ.
These activities were performed as previously described.

[2] = tested on: BceA-GFP in S. pneumoniae R800; test: BceA-GFP expression by fluorescence microscopy and Western blot; type: cell-based, Streptococcus pneumoniae; conditions: bacitracin 0.5 μg/mL, 30 min, 37°C, fluorescence microscopy of individual cells
Procedure: Cells were inoculated in C+Y medium and grown at 37°C, without agitation and in anaerobic conditions, until at OD550nm = 0.3. After centrifugation 5 min at 5,000 g, pellets were resuspended in 1/50th of initial volume in TE buffer (25 mM Tris-HCl pH = 7.5, EDTA 1 mM) with DNase/RNase 6 μg/mL and protease inhibitor CLAPA 1X (Chymostatin 1 μg/mL, Pepstatin 1 μg/mL, Leupeptin 1 μg/mL, Antipaïn 1 μg/mL, Aprotinin 4 μg/mL). Cells were lysed by sonication by using Sonifier 450 Branson device. 25 μg of crude extracts were mixed with Laemmli loading buffer and heated 10 min at 95°C. Samples were loaded onto an 12.5% SDS-PAGE and migration was performed in TG-SDS buffer (Tris-HCl 25 mM, Glycine 0.192 M, SDS 0.1% (v/v)). Proteins were transferred onto a PVDF membrane, previously activated by methanol 100%, in a transfer buffer (Tris-HCl 25 mM pH = 8, Glycine 0.192 M, methanol 20% (v/v), SDS 0.04% (v/v)). The membrane was washed with TBST (Tris-HCl 100 mM pH = 8, NaCl 150 mM, Tween 0.05%) and incubated 1 h with blocking buffer (BSA 5%, TBST). […]
Pneumococcal cells were grown at 37°C until OD550nm = 0.2 in C+Y medium. […] Images were analyzed using ImageJ (http://rsb.info.nih.gov/ij/) and the plugin MicrobeJ to generate violin plots.

Compound: CC[C@H](C)[C@H](N)C1=N[C@H](C(=O)N[C@@H](CC(C)C)C(=O)N[C@H](CCC(=O)O)C(=O)N[C@H](C(=O)N[C@H]2CCCCNC(=O)[C@H](CC(N)=O)NC(=O)[C@@H](CC(=O)O)NC(=O)[C@H](Cc3cnc[nH]3)NC(=O)[C@@H](Cc3ccccc3)NC(=O)[C@H]([C@@H](C)CC)NC(=O)[C@@H](CCCN)NC2=O)[C@@H](C)CC)CS1 [bacitracin] ({Ileψ(thiazoline)Cys}-L[dE]IK[dOrn]I[dF]H[dD]N; lactam 4-C (inferred); N-terminus assumed)
- ATPase activity of wild-type BceAB stimulated by bacitracin ([1]; after reconstitution in liposomes, calculated on total protein added to the reconstitution mixture): 0.6–1 μmol of ATP hydrolyzed/min/mg
- Specific ATPase activity of wild-type BceAB in the presence of bacitracin ([1]; proteoliposomes further separated on sucrose gradient): up to 2 μmol ATP hydrolyzed/min/mg
- Expression of BceA-GFP [2]: strongly activated
